Each compound was assayed against T1, WT BTK protein (Homo sapiens, UniProt Q06187) (assay: BTK protein degradation assay (Western blotting), WT BTK). Conditions: concentration range accounting for 50% degradation of WT BTK protein, TMD-8 or RAMOS cells, 24 hours.
T1 construct: measured for intracellular BTK protein levels by Western blotting; endogenous in cells; host or cells: TMD-8 or RAMOS cells
Assay type: cell-based
Summary of the method: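 TMD-8 cells (1×10^6 cells/mL) treated 24 h with compound serial dilutions, then lysed in RIPA. Equal protein loads analysed by Western blot for BTK with GAPDH/β-actin as loading controls; activity binned by concentration giving 50% WT BTK degradation.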

T1 sequence (Q06187 whole entry): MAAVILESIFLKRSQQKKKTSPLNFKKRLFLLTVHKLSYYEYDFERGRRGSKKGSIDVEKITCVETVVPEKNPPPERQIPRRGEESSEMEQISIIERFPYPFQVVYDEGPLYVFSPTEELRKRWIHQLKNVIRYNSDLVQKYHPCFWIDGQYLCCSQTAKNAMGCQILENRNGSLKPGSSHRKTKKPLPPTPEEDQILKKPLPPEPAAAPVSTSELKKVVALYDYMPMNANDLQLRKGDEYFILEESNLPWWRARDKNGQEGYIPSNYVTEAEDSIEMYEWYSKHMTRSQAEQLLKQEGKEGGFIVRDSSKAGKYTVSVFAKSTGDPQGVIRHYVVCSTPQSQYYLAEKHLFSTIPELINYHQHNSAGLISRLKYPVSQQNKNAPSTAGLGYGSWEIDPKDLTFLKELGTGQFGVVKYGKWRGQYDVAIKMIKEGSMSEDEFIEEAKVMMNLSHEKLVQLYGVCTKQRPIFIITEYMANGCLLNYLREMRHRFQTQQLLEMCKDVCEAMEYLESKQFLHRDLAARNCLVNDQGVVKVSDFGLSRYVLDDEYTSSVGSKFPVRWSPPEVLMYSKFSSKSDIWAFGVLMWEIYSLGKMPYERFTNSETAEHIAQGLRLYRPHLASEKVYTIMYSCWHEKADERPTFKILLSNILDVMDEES

| Structure (SMILES) | DC50 |
| --- | --- |
| Cn1nc(Nc2c(Br)cccc2Br)c2cnc(Nc3ccc4c(c3)CN(CC3CCN(c5ccc6c(c5)C(=O)N(C5CCC(=O)NC5=O)C6=O)CC3)CC4)nc21 (centres unmarked) [Compound 217, 5-(4-((7-((3-((2,6-Dibromophenyl)amino)-1-methyl-1H-pyrazolo[3,4-d]pyrimidin-6-yl)amino)-3,4-dihydroisoquinolin-2 (1H)-yl)methyl)piperidin-1-yl)-2-(2,6-dioxopiperidin-3-yl)isoindoline-1,3-dione] | 0.0001 to 0.01 µM |
| Cc1cccc(C)c1Nc1nn(C)c2nc(Nc3ccc(N4CCN(CC5CN(c6ccc7c(c6)C(=O)N(C6CCC(=O)NC6=O)C7=O)C5)C[C@@H]4C)cc3)ncc12 (stereo partly drawn) [Compound 183, 5-(3-(((S)-4-(4-((3-((2,6-Dimethylphenyl)amino)-1-methyl-1H-pyrazolo[3,4-d]pyrimidin-6-yl)amino)phenyl)-3-methylpiperazin-1-yl)methyl)azetidin-1-yl)-2-(2,6-dioxopiperidin-3-yl)isoindoline-1,3-dione] | 0.0001 to 0.01 µM |
| Cc1cccc(C)c1Nc1nn(C)c2nc(Nc3ccc4c(c3)CN(C(=O)C3CCN(c5ccc6c(c5)C(=O)N(C5CCC(=O)NC5=O)C6=O)C3)CC4)ncc12 (centres unmarked) [Compound 66] | 0.01 to 1 µM |
| Cc1cccc(Br)c1Nc1nn(C)c2nc(Nc3ccc4c(c3)CN(CC3CCN(c5ccc6c(c5)C(=O)N(C5CCC(=O)NC5=O)C6=O)CC3)CC4)ncc12 (centres unmarked) [Compound 195, 5-(4-((7-((3-((2-Bromo-6-methylphenyl)amino)-1-methyl-1H-pyrazolo[3,4-d]pyrimidin-6-yl)amino)-3,4-dihydroisoquinolin-2 (1H)-yl)methyl)piperidin-1-yl)-2-(2,6-dioxopiperidin-3-yl)isoindoline-1,3-dione] | 0.0001 to 0.01 µM |
| Cc1cccc(C)c1Nc1nn(C)c2nc(Nc3ccc(CCNC(=O)C4CCN(c5ccc6c(c5)C(=O)N(C5CCC(=O)NC5=O)C6=O)CC4)cc3)ncc12 (centres unmarked) [Compound 100, N-(4-((3-((2,6-dimethylphenyl)amino)-1-methyl-1H-pyrazolo[3,4-d]pyrimidin-6-yl)amino)phenethyl)-1-(2-(2,6-dioxopiperidin-3-yl)-1,3-dioxoisoindolin-5-yl)piperidine-4-carboxamide] | 0.0001 to 0.01 µM |
| Cc1cccc(C)c1Nc1nn(C)c2nc(Nc3ccc(N4CCN(CC5CCN(c6ccc7c(n6)C(=O)N(C6CCC(=O)NC6=O)C7=O)CC5)CC4)cc3)ncc12 (centres unmarked) [Compound 188, 3-(2-(4-((4-(4-((3-((2,6-Dimethylphenyl)amino)-1-methyl-1H-pyrazolo[3,4-d]pyrimidin-6-yl)amino)phenyl)piperazin-1-yl)methyl)piperidin-1-yl)-5-oxo-5,7-dihydro-6H-pyrrolo[3,4-b]pyridin-6-yl)piperidin-2,6-one] | 0.0001 to 0.01 µM |
| Cc1cccc(C)c1Nc1nn(C)c2nc(Nc3ccc(N4CCN(C[C@@H]5CCN(c6ccc7c(c6)C(=O)N(C6CCC(=O)NC6=O)C7=O)C5)CC4)nc3)ncc12 (stereo partly drawn) [Compound 155, 5-((S)-3-((4-(5-((3-((2,6-dimethylphenyl)amino)-1-methyl-1H-pyrazolo[3,4-d]pyrimidin-6-yl)amino)pyridin-2-yl)piperazin-1-yl)methyl)pyrrolidin-1-yl)-2-(2,6-dioxopiperidin-3-yl)isoindoline-1,3-dione] | 0.0001 to 0.01 µM |
| Cc1cccc(C)c1Nc1nn(C)c2nc(Nc3ccc4c(c3)CN(CC3CCN(c5cc6c(cc5F)C(=O)N(C5CCC(=O)NC5=O)C6)CC3)CC4)ncc12 (centres unmarked) [Compound 220, 3-(5-(4-((7-((3-((2,6-Dimethylphenyl)amino)-1-methyl-1H-pyrazolo[3,4-d]pyrimidin-6-yl)amino)-3,4-dihydroisoquinolin-2 (1H)-yl)methyl)piperidin-1-yl)-6-fluoro-1-oxoisoindolin-2-yl)piperidin-2,6-one] | 0.0001 to 0.01 µM |

— patent publication US12161722B2, “Bifunctional heterocyclic compound having BTK degradation function via ubiquitin proteasome pathway, and use thereof” (KOREA RESEARCH INSTITUTE OF CHEMICAL TECHNOLOGY, priority 2021, dated 2024)
